Measured values from a melting point compilation (Tetko et al.; mined from patent text by program, amines drawn as free bases though some values may be those of a salt).

Row | melting point [°C] | Compound
1 | 85 | COc1nc(NCCCN2CCOCC2)nc(OC)c1NC(=O)c1coc(Oc2cccc(C(C)(C)C)c2)n1
2 | 172 | CN(C)c1ccc(C2=NC[C@@H](OC(=O)Nc3ccccc3)[C@H](c3ccccc3)O2)cc1 (racemic)
3 | 84 to 85 | CCOC(=O)CCCOc1ccc(N2CCN(c3ccncc3)CC2)cc1
4 | 111 to 113 | CC1(C)CC(=O)c2c(Cc3ccccc3)cn(-c3ccccn3)c2C1
5 | 60 to 62 | CCN(CCO[N+](=O)[O-])C(=O)COC(=O)c1cc(S(N)(=O)=O)c(Cl)cc1NCc1ccco1
6 | 150 to 160 | CC(C)(C)c1cc(CCC(=O)NCCNc2c(Cl)nc(Cl)c(Cl)c2C#N)cc(C(C)(C)C)c1O
7 | 119 to 120 | O=C(NCc1ccncc1)c1cc2ccnc(N(Cc3ccccc3)Cc3ccccc3)c2[nH]1
8 | 236 | COc1cc(N)c(Cl)cc1C(=O)NC1CCN(CCCC2(C)NC(=O)NC2=O)CC1OC (centres undefined)
9 | 275 to 278 | CNC(=O)c1ccc(C)c(-c2nc(S(C)(=O)=O)nc3c2CNC(=O)N3c2c(F)cccc2F)c1
10 | 139 to 140 | Cc1c(C(F)(F)F)noc1NS(=O)(=O)c1ccc(-c2ccccc2)cc1
11 | 68 to 69 | COc1ccc2[nH]c(CCCCCCCCCCCCCCO)cc2c1
12 | 171 to 172 | CC1(C)N=C(n2ccc(O)cc2=O)c2cc(Br)ccc2O1
13 | 300 to 301 | Cc1cccc2nc3n(c(=O)c12)-c1ccc(F)cc1C3=O
14 | 154 | CCN(Cc1ccccc1OCc1ccccc1)c1ccc(C(=O)O)c(F)c1
15 | 87 to 89 | Cc1cc(Oc2ccccc2C(F)(F)F)nn1C(=O)Nc1ccccc1
16 | 119 to 121 | COc1ccc(N2CCN(c3c(C)c(C)c4c(c3C)C(C3CCCCC3)C(C)(C)O4)CC2)cc1 (centres undefined)
17 | 130 to 132 | Cn1cc(C(=O)c2ccc(Cl)cc2)cc1C(=O)CCl
18 | 205 to 207 | O=C1OCc2c1cc1ccc(Cl)cc1c2-c1ccc(Cl)cc1
19 | 204 to 205 | CS(=O)(=O)c1ccc(-c2oc(-c3ccccc3)nc2-c2ccc(F)cc2)cc1
20 | 108 to 109 | OCc1cc2cc(-c3ccc(OC(F)(F)F)cc3)ccc2n1Cc1ccccc1
21 | 148 to 150 | NS(=O)(=O)c1cc2c(s1)CCC(=O)C2
22 | 158 | CC[C@H](O)CC(=O)N[C@H]1CC[C@H](CCN2CCN(c3nccc4c3CCO4)CC2)CC1
23 | 242 | Cc1ccc(NC(=O)c2ccc(/C=C/C(=O)NO)s2)cc1Nc1nc(-c2cccnc2)cs1
24 | 99 to 100 | CCOC(=O)c1c(Cn2cnc3ccccc32)nc2cc(OC)c(OC)cc2c1-c1ccc(OC)c(OC)c1

Row | melting point [°C] | Compound
25 | 265 to 266 | CC[C@@]12C/C(=C\c3ccccc3)C(=O)C[C@H]1CCc1cc(O)ccc12
26 | 110 to 112 | COc1cc(C)nc2c(O)cccc12
27 | 79 | COC(=O)CS(=O)C(C)c1ccc(-c2ccccc2F)cc1 (centres undefined)
28 | 216 to 220 | CCCc1c(OCc2cccc(C(=O)O)c2)ccc(C(C)=O)c1O
29 | 162 to 163 | CS(=O)(=O)Nc1cc2occ(N)c(=O)c2cc1Oc1ccccc1
30 | 120 to 123 | CC1Cc2ccc(Cl)cc2C(c2ccc([N+](=O)[O-])cc2)O1 (centres undefined)
31 | 211 to 213 | CN(Cc1cccc(-c2ccc(CC3SC(=O)NC3=O)cc2)c1)C(=O)c1ccc(-c2ccc(O)cc2)cc1 (centres undefined)
32 | 195 to 196 | Cn1nc(N)c2c(c1=O)OCCNC2Cc1ccccc1 (centres undefined)
33 | 206 | Cc1cc2nc3ccccc3sc-2c(Cl)c1=O
34 | 140 to 150 | CC12CCC(OS(=O)(=O)C(F)(F)F)=CC1=CCC1C2CCC2(C)C(C(=O)O)CCC12 (centres undefined)
35 | 88 | CCOC(=O)c1ccc(CCNS(=O)(=O)c2ccc(Cl)cc2)cc1
36 | 111 to 112 | C#Cc1ccc2cc(OC)ccc2c1
37 | 296 to 298 | Cn1ncc(-c2ccc(O)cc2)cc1=O
38 | 207 to 208 | Clc1cccnc1N1CCN(c2nc3ccc(Br)cc3[nH]2)CC1
39 | 75 to 76 | OCCc1ccc(Cl)cc1CO
40 | 118 | CC(C)(C)NCC(O)COc1ccc(-c2noc3sccc23)cc1 (centres undefined)
41 | 181 to 182 | CCNC(=O)c1c(Br)ccc(OC)c1Cl
42 | 76 to 77 | CCCc1oc(-c2ccccc2)nc1COc1ccc(C=O)cc1
43 | 208 to 209 | CCCn1nnc(NC(=O)C2c3ccccc3Oc3ccccc32)n1
44 | 158 | O[C@@H]1CN=C(c2cccs2)O[C@H]1c1ccccc1 (racemic)
45 | 99 to 101 | Cc1ccc(O)c(C)c1[N+](=O)[O-]
46 | 221 to 223 | O=c1c(CCc2cccnc2)cc2cccnc2n1-c1cccc([N+](=O)[O-])c1
47 | 204 to 206 | CCCCN(Cc1ccc2c(Br)c(OCc3nnn[nH]3)ccc2c1)C(=O)c1c(C)oc2ccccc12
48 | 278 | Cn1cnc2c1c1n[nH]c(=S)n1c(=O)n2Cc1ccccc1

Row | melting point [°C] | Compound
49 | 104 to 108 | O=[N+]([O-])c1cccc2c1COC2
50 | 134 | CC(C)(C)OC(=O)[C@@H]1CS[C@H](c2ccccc2)N1C(=O)CNC(=O)Nc1cccc(C(=O)O)c1
51 | 97.8 to 99 | O=c1oc2c(c(O)c1C(c1ccccc1)C1CC1)CCCCCCCCCC2 (centres undefined)
52 | 55 to 57 | C=CCO[C@H]1[C@H](C)OC(=O)[C@@H](NC(=O)c2nccc(OC)c2OCc2ccccc2)COC(=O)[C@@H]1Cc1ccccc1
53 | 194 to 195 | C[C@@]1(NC(=O)c2cc3cccc4c3n2CCC4)C(=O)N(c2ccccc2F)c2ccccc21
54 | 120 to 122 | COc1ccc(N2CCN(c3c(C)c4c(c(OC)c3C)OC(C)C4)CC2)cc1F (centres undefined)
55 | > 239 | COc1ccccc1CN[C@H]1CCCN[C@H]1c1ccsc1 (relative stereo)
56 | 102 | CCCCCCCCCCCCCCCCCC(=O)N[C@@H](C)C(=O)O
57 | 237 to 239 | Nc1nccc(Oc2ccc3c(C(=O)Nc4ccc(F)c(C(F)(F)F)c4)nsc3c2)n1
58 | 99 to 100 | CCOC(=O)c1c(-c2ccc(F)cc2)c2ccccn2c1C(C)C
59 | 284 to 286 | CC1=C(c2cccc(C(F)(F)F)c2)n2ncc3c(=O)nc(NC(C)C)n(c32)C1
60 | 117 to 119 | Cn1nc2ccccc2c1C(=O)NC1CCN(CCc2ccc(F)cc2)C1 (centres undefined)
61 | 95 to 100 | CCOCc1nc2c(N)nc3ccccc3c2n1CC1(NC(=O)OCC)CCCCC1
62 | 165 to 166 | CON=C(C)c1cccc(S(N)(=O)=O)c1
63 | > 300 | Cn1cc2c(nc(NC(=O)Nc3ccc(CC(=O)O)cc3)n3nc(-c4ccco4)nc23)n1
64 | 304 to 306 | COc1ccc(-n2cc(C#N)c(=O)[nH]c2=O)cc1
65 | 177 | O=Cc1ccc(OC2OC(CO)C(O)C(O)C2O)cc1 (centres undefined)
66 | 156 to 158 | O=c1[nH]c2ccc(Cl)cc2n1CCN1CCCCC1
67 | 123 | COc1cc(C)nc(N(C)C#N)n1
68 | 71 to 72 | COCOCC1Oc2c(OC)cccc2C1=O (centres undefined)
69 | 146 | CC(=O)Oc1ccc(Oc2ccc(NC(=O)Nc3cc(C(C)(C)C)on3)cc2)cc1
70 | 186 to 190 | N=C(NC(=O)NCCCCCCNC(=O)NC(=N)Nc1ccc(Cl)cc1)Nc1ccc(Cl)cc1
71 | 221 | COc1ccc(C)cc1NC(=O)Nc1ccc(N2CCN(C(=O)Nc3ccccc3)CC2)cc1
72 | 85 to 86 | Cc1oc(-c2ccc(C(F)(F)F)cc2)nc1CC#N

Row | melting point [°C] | Compound
73 | 335 to 338 | COc1cc(C=C2SC(N3CCOCC3)=NC2=O)cc(-c2ccc(O)c(C34CC5CC(CC(C5)C3)C4)c2)c1O
74 | 105 to 107 | CC1CC(N)=NN1c1cccc(Cl)n1 (centres undefined)
75 | 195 to 200 | N#Cc1c(Nc2cccc(Cl)c2)n[nH]c1N
76 | 160 | COc1ccc(C(=O)Nc2ccc3ccc(Oc4ccccc4)nc3n2)cc1
77 | 151 to 153 | O=C(NC1CCCCC1)C1=C(c2ccccc2)C(c2ccccc2)OC1=O (centres undefined)
78 | 177 to 179 | CCOC(=O)C1=C(C)NC(C)=C(C(=O)OCC)C1c1c(SC)sc2ccccc12
79 | 170 to 171 | CCOC(=O)c1nnc2ccc(NC(C)C)cc2c1O
80 | 136 | CC1(C)Cc2c(N)c(Cl)cc(C(=O)NC3CCN(CCCC4(C)OCCO4)CC3)c2O1
81 | 115 to 117 | COc1cccc2c(Nc3ccccc3C)c(C(=O)C3CCCCC3)cnc12
82 | 155 to 157 | O=C(c1ccccc1CN1CC=CCC1)N1CCN2C(=O)OC(c3ccccc3)(c3ccccc3)C2C1 (centres undefined)
83 | 137 | CN1CCN(c2ncc(-c3ccc(Cl)cc3Cl)c(N)n2)CC1
84 | 73 to 75 | COC(=O)c1ccc(CBr)cc1O
85 | 223 | CCCn1c(-c2ccccc2)nc2cc(C(=O)O)ccc21
86 | 92 to 93 | CCS(=O)(=O)c1cc(C(C)(C)C)cc(C=O)c1O
87 | 124 to 126 | CCOC(=O)c1c(N2CCN(Cc3ccccc3)CC2)n[nH]c1C
88 | 190 to 191 | COc1ccccc1Nc1nnc(Cc2ccncc2)c2ccccc12
89 | 128 to 131 | CS(=O)(=O)Nc1cccc(Nc2nc(NCc3cccc(C#N)c3)c3nc[nH]c3n2)c1
90 | 115 to 116 | NC(=O)NC[C@@H]1CCCc2cc(Sc3cccc(F)c3)ccc21
91 | 97 to 98 | CCCCCS(=O)(=O)NC(=O)/C(C)=C/c1ccc(OCCOC)cc1Oc1ncc(Cl)cc1Cl
92 | 108 | Cc1ccc(Br)cc1Cn1c(C(F)F)nn(C)c1=O
93 | 197 to 199 | CCC(CC)n1cc(C#N)nc(N2CCc3cc(Cl)cc(Cl)c32)c1=O
94 | 123 to 124 | CCOC(=O)N(NC(N)=O)c1ccc(CC[Si](OCC)(OCC)OCC)cc1
95 | 196 to 197 | CC(C)(C)CC(=O)Nc1ccc2oc3c(c2c1)CCC3

Row | Compound | melting point [°C]
96 | CC(=O)N1N=C(c2ccc(N)cc2)c2cc(Cl)c(Cl)cc2CC1C (centres undefined) | 242 to 243
97 | Cc1c(Br)c(N2CC[C@H](N(C)C)C2)c2oc(C3CC3)nc2c1C#N | 82 to 86
98 | O=C1CCC2C3Cc4ccc(O)cc4C2(CCN3CC2CC2)C1 (centres undefined) | 125 to 127
99 | CN1[C@H]2CC[C@@H]1[C@H](c1nc(-c3ccncc3)no1)[C@@H](c1ccc3c(c1)OCO3)C2 | 110 to 112
